Test results published in patent US11285142B2, “Compositions and methods for identifying and treating dystonia disorders” (DUKE UNIVERSITY, priority 2015, dated 2022).
“Also recorded” adds a separate entry of the source. Peptide text beside a SMILES is read from it. * marks the point of attachment. Cbz = O=C(OCc1ccccc1)*

How the values were obtained:
[1] = tested on: delta-E Torsin1a localization in Flp-In T-REx 293 cells expressing EGFP-delta-E Torsin1a; assay: delta-E Torsin1a mis-localization assay (high-content imaging, % cells with EGFP puncta); type: cell-based, human; conditions: delta-E cell line; for percentage of cells with punctate EGFP-Torsin1a signal: MG132 10 μM, PBA 20 mM
Experimental: (§1) To limit variation in expression levels associated with random integration or transient expression, single copies of either WT or delta-E human TOR1A cDNAs with N-terminal EGFP fusions were inserted at the FRT site in Flp-In™ T-Rex™ 293 cells (Thermo Fisher Scientific #R780-07) via flippase recombinase-mediated cassette exchange according to the manufacturer's recommended protocols.
The cells were maintained at 37° C./5% CO2. All experiments were performed on cells with fewer than 5 passages.
Torsin1a expression was also controlled by tetracycline induction to avoid selective pressure modifying the cellular phenotypes. […] The mutant phenotype was measured as the percentage of cells with one or more EGFP puncta using automated high-content imaging analysis (see infra).
The image analysis algorithm was developed using the Cellomics ArrayScan V CompartmentAnalysisV2 protocol. Hoechst's nuclear staining (Ch1: excitation 350 nm; emission 461 nm) was used for focusing and for cell identification by nuclear size, shape, and intensity. […] Detected cells were gated according to nuclear area, length-to-width ratio, and perimeter-to-area ratio. For the purpose of analysis, cell bodies were defined by a radius of 10 μm from the outer edge of the defined nucleus. Overlapping cells were automatically segmented according to the Cellomics ArrayScanV CompartmentAnalysisV2 object segmentation feature. EGFP fluorescence (Ch2: excitation 488 nm; emission 509 nm) was used for puncta detection. […] Torsin1a puncta were identified using the spot detection feature of the Compartmental AnalysisV2 protocol. The percentage of cells containing one or more puncta was used as the primary metric in this assay.
(§2) In order to test this model directly, the delta-E Torsin1a cell line was treated with compounds targeting the eIF2-alpha signaling pathway (FIG. 2). […] The following day, serial drug dilutions were prepared at 2× final concentration in assay media containing 10 μg/mL tetracycline and 30 μL of the drug/tetracycline mixture was added to the appropriate wells, while control wells received 30 μL of assay media alone or assay media+10 μg/mL tetracycline (final tetracycline concentration for all wells except negative controls: 5 μg/mL). Cells were then incubated at 37° C./5% CO^2 for 48 hours and fixed, permeabilized, Hoechst stained, and imaged as described above. The range of the Torsin1a localization effect was normalized to the percentage of cells with puncta in vehicle-treated delta-E cell line as the maximum and that in WT cell line as the minimum (FIG. 2, panels c-h). Cell count and EGFP-Torsin1a expression were normalized to their respective values in the vehicle-treated delta-E cell line as the maximum. All dose response data are the average of 4 independent experiments per dose. Untreated control data used for normalization are the average of 24 independent experiments.

[2] = tested on: WT Torsin1a localization in Flp-In T-REx 293 cells expressing EGFP-WT Torsin1a; assay: Torsin1a localization assay in WT Torsin1a-expressing assay cell line; type: cell-based, human; conditions: WT cell line; MG132 10 μM, PBA 20 mM
Text: To develop an assay capable of detecting conditions that correct a dystonia cellular phenotype, two human cell lines were generated that stably expressed EGFP-tagged human wild-type Torsin 1A, or delta-E Torsin1a, from a single cDNA copy integrated at a defined genomic site (FIG. 1, panel 1).
as §1, with “protocols. This system includes an inducible expression feature (TetON) that avoids selective pressure for potential toxic effects of chronic expression of mutant proteins (FIG. 1, panel 1). […]” for “protocols.”
This approach provides control over expression levels, avoiding the wide variation typically seen with random genomic integration or transient expression approaches. […] The mutant phenotype was measured as the percentage of cells with one or more EGFP puncta using automated high-content imaging analysis (see infra).
Development and validation of the high-content image analysis and assay performance under high-throughput screening conditions is presented in FIG. 9. […] Automated exposure times for each plate were determined by setting a target saturation of 25% in channel 1 in wells containing tetracycline-induced delta-E cells. Detected cells were gated according to nuclear area, length-to-width ratio, and perimeter-to-area ratio. […] EGFP fluorescence (Ch2: excitation 488 nm; emission 509 nm) was used for puncta detection. Automated exposure times for each plate were determined by setting a target saturation of 35% in channel 2 in wells containing induced delta-E cells. […]

[3] = tested on: Flp-In T-REx 293 cells expressing delta-E Torsin1a; assay: Cytotoxicity (cell count, cellular morphology) in the Torsin1a assay cell line; type: cell-based, human; conditions: at effective concentrations
Experimental: as §2
Efficacy is calculated as the magnitude of the pathology correction relative to the mutant Torsin1a pathology. For example an efficacy=−100% would be equivalent to the WT TorsinA phenotype, and 0% would be equivalent to the Mutant TorsinA phenotype. CCv2 refers to the dose response Curve Class annotation, and AC refers to Active Concentration.

[4] = tested on: homozygous DYT1 (delta-E Torsin1a) knock-in mice; assay: Perinatal survival of homozygous DYT1 knock-in mice after in utero exposure; type: in vivo, mouse
Experimental: The findings above support a role for the eIF2-alpha signaling pathway in normalizing in vitro cellular phenotypes related to the DYT1 genotype. Next, the effect of targeting eIF2-alpha signaling on the deleterious consequences of the DYT1 TorsinA mutation was determined in vivo. Etiological mouse models of DYT1 dystonia have not had robust dystonic phenotypes. (Tanabe, L. M., et al., (2012) PloS One 7, e32245; Camargos, S. et al., (2008) Lancet. Neurol. 7, 207-15; Seibler, P. et al. (2008) Lancet. Neurol. 7, 380-1.) Nonetheless, another deleterious genotype-dependent effect of the mutation on the animal-neonatal lethality of homozygous delGAG knock-in mice—facilitated interrogation of the impact of eIF2-alpha targeting in vivo (FIG. 4a). (Seibler, P. et al. (2008) Lancet. Neurol. 7, 380-1; Goodchild, R. E., et al, (2005) Neuron 48, 923-32.)
Pairs of heterozygous delta-E Torsin1a knock-in breeders (courtesy of Dr. W. Dauer, University of Michigan) were randomly assigned to vehicle or salubrinal treatment groups. Starting 10 days after breeding cages were established, each female mouse was given a daily subcutaneous injection of vehicle or salubrinal at approximately 6 p.m. Cages were checked for new pups three times per day: morning (˜8 a.m.), early afternoon (˜2 p.m.), and during injections (˜6 p.m.). In order to minimize stress and the possibility of litter abandonment, mice with newborn pups were not given injections. Newborn pups were identified by marking limbs with a permanent laboratory marker, and tail samples were taken for genotyping at P0. At approximately P0.5, cages were checked again, and the status of each pup was recorded. If pups were first observed at the 8 am check, the 2 pm check was considered P0.5. If pups were first observed at the 2 pm or 6 pm checks, an additional check was performed at approximately midnight, and considered P0.5. Mortality was also tracked the following day, after which time identifying marks were predominately washed off or obscured by fur. […]

Row | SMILES | percentage of cells with punctate EGFP-Torsin1a signal [1] | percentage of cells with punctate EGFP-Torsin1a signal [2] | EC50 ([1]; Homo sapiens, Flp-In-T-REx-293, 48 hours, dose response, read-out: EC50 of normalization of delta-E Torsin1a localization) [nM] | effect on delta-E Torsin1a localization (in words) ([1]; dose response) | efficacy on delta-E Torsin1a localization ([1]; normalized to vehicle delta-E (max) and WT (min)) [%] | toxicity (cell count, cellular morphology; in words) [3] | perinatal survival / mortality of homozygous delta-E/delta-E pups ([4]; 3.3 mg/kg subcutaneous daily to pregnant dams from about embryonic day 10 through delivery, vs vehicle) | mortality of wildtype or heterozygote pups ([4]; 3.3 mg/kg subcutaneous daily to pregnant dams, treatment vs control) | homozygous delta-E Torsin1a pups that survived through the second postnatal day ([4]; in utero exposure, no vehicle-treated homozygous pups survived the first postnatal day)
1 | CC(C)C[C@@H](C=O)NC(=O)[C@H](CC(C)C)NC(=O)[C@H](CC(C)C)NC(=O)OCc1ccccc1 [MG132] (Cbz-Leu-Leu-Leu-aldehyde) | significantly increased | significantly increased | – | – | – | – | – | – | –
2 | O=C(O)CCCc1ccccc1 [PBA, phenylbutyric acid] | ameliorated the burden of cells with punctate pathology | ameliorated the burden of cells with punctate pathology | – | – | – | – | – | – | –
3 | O=C(/C=C/c1ccccc1)NC(NC(=S)Nc1cccc2cccnc12)C(Cl)(Cl)Cl (centres unmarked) [Salubrinal] | – | – | 2120 | robust dose-dependent normalization | 66.4 | without modifying steady-state EGFP-Torsin1a levels or significant toxicity | dramatically reduced the mortality; also recorded: improves perinatal survival | no mortality differences | two
